Reference: ChEMBL document CHEMBL3045910, “Novel molluscicide against Pomacea canaliculata based on quinoa (Chenopodium quinoa) saponins” (Crop Prot, 2008)
Calls of active or inactive are those of the source. The rule behind the calls is not given here.

Tests used:
[1] = Toxicity against Carassius auratus under laboratory conditions assessed as mortality at 5 ppm measured after 96 hr; format: organism-based; details: in vivo
[2] = Toxicity against Carassius auratus under laboratory conditions assessed as mortality at 23 ppm measured after 24 hr; format: organism-based; details: in vivo
[3] = test system: Pomacea canaliculata; experiment: Molluscicidal activity against Pomacea canaliculata under laboratory conditions assessed as mortality at 10 ppm after 24 hr; format: functional
[4] = Toxicity against Carassius auratus under laboratory conditions assessed as mortality at 10 ppm measured after 96 hr; format: organism-based; details: in vivo
[5] = Toxicity against Oreochromis sp. under laboratory conditions assessed as mortality at 33 ppm measured after 24 hr; format: organism-based; details: in vivo
[6] = Toxicity against Carassius auratus under laboratory conditions assessed as mortality at 54 ppm measured after 48 hr; format: organism-based; details: in vivo
[7] = Toxicity against Oreochromis sp. under laboratory conditions assessed as mortality at 10 ppm measured after 96 hr; format: organism-based; details: in vivo
[8] = Toxicity against Carassius auratus under laboratory conditions assessed as mortality at 23 ppm measured after 48 hr; format: organism-based; details: in vivo
[9] = Toxicity against Carassius auratus under laboratory conditions assessed as mortality at 17 ppm measured after 96 hr; format: organism-based; details: in vivo
[10] = Toxicity against Carassius auratus under laboratory conditions assessed as mortality at 54 ppm measured after 96 hr; format: organism-based; details: in vivo
[11] = Toxicity against Oreochromis sp. under laboratory conditions assessed as mortality at 5 ppm measured after 96 hr; format: organism-based; details: in vivo
[12] = test system: Pomacea canaliculata; experiment: Molluscicidal activity against Pomacea canaliculata infested rice field assessed as mortality at 19 to 27 ppm after 24 hr; format: functional, organism-based
[13] = Toxicity against Carassius auratus under laboratory conditions assessed as mortality at 40 ppm measured after 96 hr; format: organism-based; details: in vivo
[14] = Toxicity against Oreochromis sp. under laboratory conditions assessed as mortality at 23 ppm measured after 24 hr; format: organism-based; details: in vivo
[15] = Toxicity against Carassius auratus under laboratory conditions assessed as mortality at 17 ppm measured after 24 hr; format: organism-based; details: in vivo
[16] = Toxicity against Carassius auratus under laboratory conditions assessed as mortality at 5 ppm measured after 24 hr; format: organism-based; details: in vivo
[17] = Toxicity against Oreochromis sp. under laboratory conditions assessed as mortality at 40 ppm measured after 96 hr; format: organism-based; details: in vivo
[18] = Toxicity against Carassius auratus under laboratory conditions assessed as mortality at 54 ppm measured after 24 hr; format: organism-based; details: in vivo
[19] = Toxicity against Carassius auratus under laboratory conditions assessed as mortality at 33 ppm measured after 96 hr; format: organism-based; details: in vivo
[20] = Toxicity against Oreochromis sp. under laboratory conditions assessed as mortality at 33 ppm measured after 96 hr; format: organism-based; details: in vivo
[21] = Toxicity against Carassius auratus under laboratory conditions assessed as mortality at 10 ppm measured after 24 hr; format: organism-based; details: in vivo
[22] = Toxicity against Oreochromis sp. under laboratory conditions assessed as mortality at 5 ppm measured after 24 hr; format: organism-based; details: in vivo
[23] = Toxicity against Oreochromis sp. under laboratory conditions assessed as mortality at 10 ppm measured after 24 hr; format: organism-based; details: in vivo
[24] = Toxicity against Carassius auratus under laboratory conditions assessed as mortality at 5 ppm measured after 48 hr; format: organism-based; details: in vivo
[25] = Toxicity against Carassius auratus under laboratory conditions assessed as mortality at 23 ppm measured after 96 hr; format: organism-based; details: in vivo
[26] = Toxicity against Oreochromis sp. under laboratory conditions assessed as mortality at 54 ppm measured after 96 hr; format: organism-based; details: in vivo
[27] = test system: Pomacea canaliculata; experiment: Molluscicidal activity against Pomacea canaliculata under laboratory conditions assessed as mortality at 23 ppm after 24 hr; format: functional
[28] = Toxicity against Oreochromis sp. under laboratory conditions assessed as mortality at 54 ppm measured after 24 hr; format: organism-based; details: in vivo
[29] = Toxicity against Carassius auratus under laboratory conditions assessed as mortality at 17 ppm measured after 48 hr; format: organism-based; details: in vivo
[30] = Toxicity against Oreochromis sp. under laboratory conditions assessed as mortality at 17 ppm measured after 24 hr; format: organism-based; details: in vivo
[31] = Toxicity against Carassius auratus under laboratory conditions assessed as mortality at 10 ppm measured after 48 hr; format: organism-based; details: in vivo
[32] = Toxicity against Carassius auratus under laboratory conditions assessed as mortality at 40 ppm measured after 48 hr; format: organism-based; details: in vivo
[33] = test system: Pomacea canaliculata; experiment: Molluscicidal activity against Pomacea canaliculata under laboratory conditions assessed as mortality at 40 ppm after 24 hr; format: functional
[34] = Toxicity against Oreochromis sp. under laboratory conditions assessed as mortality at 17 ppm measured after 96 hr; format: organism-based; details: in vivo
[35] = Toxicity against Oreochromis sp. under laboratory conditions assessed as mortality at 40 ppm measured after 24 hr; format: organism-based; details: in vivo
[36] = Toxicity against Carassius auratus under laboratory conditions assessed as mortality at 33 ppm measured after 48 hr; format: organism-based; details: in vivo
[37] = test system: Pomacea canaliculata; experiment: Molluscicidal activity against Pomacea canaliculata under laboratory conditions assessed as mortality at 5 ppm after 24 hr; format: functional
[38] = test system: Pomacea canaliculata; experiment: Molluscicidal activity against Pomacea canaliculata under laboratory conditions assessed as mortality at 33 ppm after 24 hr; format: functional
[39] = Toxicity against Carassius auratus under laboratory conditions assessed as mortality at 33 ppm measured after 24 hr; format: organism-based; details: in vivo
[40] = Toxicity against Carassius auratus under laboratory conditions assessed as mortality at 40 ppm measured after 24 hr; format: organism-based; details: in vivo
[41] = Toxicity against Oreochromis sp. under laboratory conditions assessed as mortality at 23 ppm measured after 96 hr; format: organism-based; details: in vivo
[42] = test system: Pomacea canaliculata; experiment: Molluscicidal activity against Pomacea canaliculata under laboratory conditions assessed as mortality at 54 ppm after 24 hr; format: functional
[43] = test system: Pomacea canaliculata; experiment: Molluscicidal activity against Pomacea canaliculata under laboratory conditions assessed as mortality at 17 ppm after 24 hr; format: functional

Q: Which results are given for `CC1(C)CC[C@]2(C(=O)O)CC[C@]3(C)C(=CC[C@@H]4[C@@]5(C)CC[C@H](O)[C@@](C)(CO)[C@@H]5CC[C@]43C)[C@@H]2C1` [HEDERAGENIN]?
A: mortality at 96 h, 5 ppm [1]: 0%; mortality at 24 h, 23 ppm [2]: 0%; mortality at 10 ppm [3]: 50%; mortality at 96 h, 10 ppm [4]: 0%; mortality at 24 h, 33 ppm [5]: 0%; mortality at 48 h, 54 ppm [6]: 0%; mortality at 96 h, 10 ppm [7]: 0%; mortality at 48 h, 23 ppm [8]: 0%; mortality at 96 h, 17 ppm [9]: 0%; mortality at 96 h, 54 ppm [10]: 0%; mortality at 96 h, 5 ppm [11]: 0%; mortality [12]: Active; mortality at 96 h, 40 ppm [13]: 0%; mortality at 24 h, 23 ppm [14]: 0%; mortality at 24 h, 17 ppm [15]: 0%; mortality at 24 h, 5 ppm [16]: 0%; mortality at 96 h, 40 ppm [17]: 0%; mortality at 24 h, 54 ppm [18]: 0%; mortality at 96 h, 33 ppm [19]: 0%; mortality at 96 h, 33 ppm [20]: 0%; mortality at 24 h, 10 ppm [21]: 0%; mortality at 24 h, 5 ppm [22]: 0%; mortality at 24 h, 10 ppm [23]: 0%; mortality at 48 h, 5 ppm [24]: 0%; mortality at 96 h, 23 ppm [25]: 0%; mortality at 96 h, 54 ppm [26]: 0%; mortality at 23 ppm [27]: 75%; mortality at 24 h, 54 ppm [28]: 0%; mortality at 48 h, 17 ppm [29]: 0%; mortality at 24 h, 17 ppm [30]: 0%; mortality at 48 h, 10 ppm [31]: 0%; mortality at 48 h, 40 ppm [32]: 0%; mortality at 40 ppm [33]: 100%; mortality at 96 h, 17 ppm [34]: 0%; mortality at 24 h, 40 ppm [35]: 0%; mortality at 48 h, 33 ppm [36]: 0%; mortality at 5 ppm [37]: 0%; mortality at 33 ppm [38]: 100%; mortality at 24 h, 33 ppm [39]: 0%; mortality at 24 h, 40 ppm [40]: 0%; mortality at 96 h, 23 ppm [41]: 0%; mortality at 54 ppm [42]: 100%; mortality at 17 ppm [43]: 75%

Q: Which mortality at 96 h, 5 ppm [1] does the source give for `CC1(C)CC[C@]2(C(=O)O)CC[C@]3(C)C(=CC[C@@H]4[C@@]5(C)CC[C@H](O)C(C)(C)[C@@H]5CC[C@]43C)[C@@H]2C1` [OLEANOLIC_ACID] here?
A: The mortality at 96 h, 5 ppm was 0%.

Q: What about the mortality at 24 h, 23 ppm [2] of the same molecule?
A: Its mortality at 24 h, 23 ppm is 0%.

Q: And the mortality at 10 ppm [3]?
A: Its mortality at 10 ppm is 50%.

Q: And the mortality at 96 h, 10 ppm [4]?
A: The mortality at 96 h, 10 ppm was 0%.

Q: And the mortality at 24 h, 33 ppm [5]?
A: Its mortality at 24 h, 33 ppm is 0%.

Q: And the mortality at 48 h, 54 ppm [6]?
A: Its mortality at 48 h, 54 ppm is 0%.

Q: What about the mortality at 96 h, 10 ppm [7] of the same molecule?
A: Its mortality at 96 h, 10 ppm is 0%.

Q: What about the mortality at 48 h, 23 ppm [8] of the same molecule?
A: The mortality at 48 h, 23 ppm was 0%.

Q: What about the mortality at 96 h, 17 ppm [9] of the same molecule?
A: Its mortality at 96 h, 17 ppm is 0%.

Q: And the mortality at 96 h, 54 ppm [10]?
A: Its mortality at 96 h, 54 ppm is 0%.

Q: And the mortality at 96 h, 5 ppm [11]?
A: Its mortality at 96 h, 5 ppm is 0%.

Q: And the mortality [12]?
A: Its mortality is “Active”.

Q: What about the mortality at 96 h, 40 ppm [13] of the same molecule?
A: The mortality at 96 h, 40 ppm was 0%.

Q: And the mortality at 24 h, 23 ppm [14]?
A: The mortality at 24 h, 23 ppm was 0%.

Q: And the mortality at 24 h, 17 ppm [15]?
A: Its mortality at 24 h, 17 ppm is 0%.

Q: And the mortality at 24 h, 5 ppm [16]?
A: The mortality at 24 h, 5 ppm was 0%.

Q: What about the mortality at 96 h, 40 ppm [17] of the same molecule?
A: Its mortality at 96 h, 40 ppm is 0%.

Q: What about the mortality at 24 h, 54 ppm [18] of the same molecule?
A: The mortality at 24 h, 54 ppm was 0%.

Q: What about the mortality at 96 h, 33 ppm [19] of the same molecule?
A: The mortality at 96 h, 33 ppm was 0%.

Q: And the mortality at 96 h, 33 ppm [20]?
A: The mortality at 96 h, 33 ppm was 0%.

Q: And the mortality at 24 h, 10 ppm [21]?
A: Its mortality at 24 h, 10 ppm is 0%.

Q: What about the mortality at 24 h, 5 ppm [22] of the same molecule?
A: Its mortality at 24 h, 5 ppm is 0%.

Q: What about the mortality at 24 h, 10 ppm [23] of the same molecule?
A: Its mortality at 24 h, 10 ppm is 0%.

Q: What about the mortality at 48 h, 5 ppm [24] of the same molecule?
A: The mortality at 48 h, 5 ppm was 0%.

Q: And the mortality at 96 h, 23 ppm [25]?
A: The mortality at 96 h, 23 ppm was 0%.

Q: What about the mortality at 96 h, 54 ppm [26] of the same molecule?
A: Its mortality at 96 h, 54 ppm is 0%.

Q: What about the mortality at 23 ppm [27] of the same molecule?
A: The mortality at 23 ppm was 75%.

Q: And the mortality at 24 h, 54 ppm [28]?
A: The mortality at 24 h, 54 ppm was 0%.

Q: And the mortality at 48 h, 17 ppm [29]?
A: Its mortality at 48 h, 17 ppm is 0%.

Q: And the mortality at 24 h, 17 ppm [30]?
A: Its mortality at 24 h, 17 ppm is 0%.

Q: What about the mortality at 48 h, 10 ppm [31] of the same molecule?
A: Its mortality at 48 h, 10 ppm is 0%.

Q: What about the mortality at 48 h, 40 ppm [32] of the same molecule?
A: Its mortality at 48 h, 40 ppm is 0%.

Q: And the mortality at 40 ppm [33]?
A: The mortality at 40 ppm was 100%.

Q: And the mortality at 96 h, 17 ppm [34]?
A: The mortality at 96 h, 17 ppm was 0%.

Q: And the mortality at 24 h, 40 ppm [35]?
A: The mortality at 24 h, 40 ppm was 0%.

Q: And the mortality at 48 h, 33 ppm [36]?
A: The mortality at 48 h, 33 ppm was 0%.

Q: What about the mortality at 5 ppm [37] of the same molecule?
A: The mortality at 5 ppm was 0%.

Q: What about the mortality at 33 ppm [38] of the same molecule?
A: The mortality at 33 ppm was 100%.

Q: What about the mortality at 24 h, 33 ppm [39] of the same molecule?
A: The mortality at 24 h, 33 ppm was 0%.

Q: And the mortality at 24 h, 40 ppm [40]?
A: The mortality at 24 h, 40 ppm was 0%.

Q: And the mortality at 96 h, 23 ppm [41]?
A: Its mortality at 96 h, 23 ppm is 0%.

Q: And the mortality at 54 ppm [42]?
A: The mortality at 54 ppm was 100%.

Q: And the mortality at 17 ppm [43]?
A: The mortality at 17 ppm was 75%.
